{"source": "patent US6762182B1", "about": "“Converting cox inhibition compounds that are not COX-2 selective inhibitors to derivatives that are COX-2 selective inhibitors” (Vanderbilt University, priority 1999, dated 2004)", "key": {"[1]": {"molecular_target": "T1, COX-2 (Homo sapiens, UniProt P35354)", "T1 sequence (P35354 18-604)": "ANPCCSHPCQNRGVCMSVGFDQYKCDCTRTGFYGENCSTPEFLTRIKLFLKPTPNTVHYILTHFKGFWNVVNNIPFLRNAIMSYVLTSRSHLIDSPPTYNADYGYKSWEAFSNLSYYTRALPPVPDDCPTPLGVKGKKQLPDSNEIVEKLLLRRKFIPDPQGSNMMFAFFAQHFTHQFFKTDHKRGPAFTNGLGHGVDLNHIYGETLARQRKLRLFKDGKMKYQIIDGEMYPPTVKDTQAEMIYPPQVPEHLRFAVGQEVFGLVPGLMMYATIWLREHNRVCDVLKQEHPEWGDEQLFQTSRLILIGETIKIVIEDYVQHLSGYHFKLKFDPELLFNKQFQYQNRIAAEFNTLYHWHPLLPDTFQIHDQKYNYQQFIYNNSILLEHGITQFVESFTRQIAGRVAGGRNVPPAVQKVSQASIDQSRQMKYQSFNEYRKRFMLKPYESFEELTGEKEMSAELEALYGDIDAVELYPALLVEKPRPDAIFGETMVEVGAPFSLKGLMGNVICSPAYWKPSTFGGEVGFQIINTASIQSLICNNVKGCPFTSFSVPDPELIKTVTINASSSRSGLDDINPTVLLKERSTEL", "experiment": "TLC assay, inhibition of purified human COX-2", "type": "biochemical", "details": "for IC50: human COX-2 (66 nM)", "source_text": "(§1) Ovine COX-1 was used because it is very easy to isolate and to purify the enzyme from sheep seminal vesicles, whereas human COX-1 is normally obtained by over expression in an insect cell system and is very difficult to handle and especially to purify. COX-1 from sheep is >90% similar to COX-1 from humans. […] COX-1 was purified from ram seminal vesicles obtained from Oxford Biomedical Research, Inc. (Oxford, Mich.). […] The enzymes obtained after purification were apo (i.e., they lacked the hemprosthetic group).\n(§2) Reactions were terminated by solvent extraction in Et2O/CH3OH/1 M citrate, pH 4.0 (30:4:1). The phases were separated by centrifugation at 2000 g-force for 2 minutes and the organic phase was spotted on a TLC plate (obtained from J. T. Baker, Phillipsburg, N.J.). The plate was developed in EtOAc/CH2Cl2/glacial AcOH (75:25:1) at 4° C. Radiolabeled prostanoid products were quantitatively determined with a radioactivity scanner (obtained from Bioscan, Inc., Washington, D.C.)."}, "[2]": {"molecular_target": "T2, ovine COX-1 (Ovis aries, UniProt P05979)", "T2 sequence (P05979 25-600)": "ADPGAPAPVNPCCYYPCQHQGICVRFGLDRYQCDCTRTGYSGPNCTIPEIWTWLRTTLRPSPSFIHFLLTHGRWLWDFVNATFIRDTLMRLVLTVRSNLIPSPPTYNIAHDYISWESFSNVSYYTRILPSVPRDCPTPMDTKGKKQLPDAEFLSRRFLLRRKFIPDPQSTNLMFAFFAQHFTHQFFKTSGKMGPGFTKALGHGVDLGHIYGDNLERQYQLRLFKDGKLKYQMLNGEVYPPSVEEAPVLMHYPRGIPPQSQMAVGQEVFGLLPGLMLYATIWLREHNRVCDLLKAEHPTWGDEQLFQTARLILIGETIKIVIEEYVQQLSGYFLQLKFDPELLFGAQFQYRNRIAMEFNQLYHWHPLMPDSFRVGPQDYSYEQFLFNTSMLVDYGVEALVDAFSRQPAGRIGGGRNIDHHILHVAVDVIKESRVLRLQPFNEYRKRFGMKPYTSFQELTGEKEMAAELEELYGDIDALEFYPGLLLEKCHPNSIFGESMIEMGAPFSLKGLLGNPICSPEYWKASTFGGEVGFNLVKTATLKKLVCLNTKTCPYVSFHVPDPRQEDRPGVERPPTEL", "experiment": "TLC assay, inhibition of purified ovine COX-1", "source_text": "as §1, §2"}, "[3]": {"system": "carrageenan-induced rat foot pad edema", "experiment": "Rat foot pad edema model (carrageenan)", "type": "in vivo", "details": "for 3 hour edema: gavage 1 hour post carrageenan, 6 rats", "procedure": "Rats were injected with carrageenan, which triggers a rapid edema (swelling) within 3 hours that can be quantitatively measured by volume displacement.\nIn these experiments, the carrageenan that was injected was in 0.1 mL of aqueous saline so that 0.1 mL volume increase was due to the injection alone. […] More specifically, male Sprague-Dawley rats (150 g) received a subplantar injection of carrageenan (0.1 mL of a 1% suspension of carrageenan in sterile aqueous saline) into the right hind footpad while mildly anesthetized with methoxyflurane. […] The ipsilateral footpad volume (mL) was measured with a water displacement plethysmometer at time=3 hours post-injection and compared to the time=0 pre-injection paw volume for edema calculations."}, "[4]": {"molecular_target": "T1, COX-2", "details": "background; cited from earlier work"}, "[5]": {"molecular_target": "COX-1 (Homo sapiens, UniProt P23219)", "sequence (P23219 24-599)": "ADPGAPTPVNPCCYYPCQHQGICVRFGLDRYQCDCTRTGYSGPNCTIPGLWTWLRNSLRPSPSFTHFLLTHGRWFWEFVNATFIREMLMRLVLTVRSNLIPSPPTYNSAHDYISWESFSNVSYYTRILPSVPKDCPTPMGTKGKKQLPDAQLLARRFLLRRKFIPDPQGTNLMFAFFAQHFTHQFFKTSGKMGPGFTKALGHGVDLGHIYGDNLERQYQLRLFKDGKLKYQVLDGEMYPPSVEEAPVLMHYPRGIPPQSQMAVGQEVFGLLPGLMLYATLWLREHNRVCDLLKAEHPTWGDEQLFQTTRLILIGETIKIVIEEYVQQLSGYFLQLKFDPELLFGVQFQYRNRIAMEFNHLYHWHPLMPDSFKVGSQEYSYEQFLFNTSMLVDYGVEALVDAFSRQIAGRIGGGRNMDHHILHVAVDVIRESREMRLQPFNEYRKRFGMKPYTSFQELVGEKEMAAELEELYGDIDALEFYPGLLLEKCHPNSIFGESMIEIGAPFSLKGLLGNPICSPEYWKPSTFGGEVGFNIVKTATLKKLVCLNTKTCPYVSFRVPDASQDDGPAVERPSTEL", "details": "background; cited from earlier work"}, "[6]": {"details": "read-out: IC50 (μM) COX-1, Table 1 ester derivatives, ovine COX-1 (44 nM), 20 min at rt, then 14C-AA (50 μM) 37° C. 30 sec"}, "[7]": {"details": "Table 2 amide derivatives, 20 min, then 1-14C-AA (50 μM) 37° C. 30 sec"}, "[8]": {"details": "read-out: IC50 (μM) COX-1, Table 2 amide derivatives, ovine COX-1 (44 nM), 20 min, then 1-14C-AA (50 μM) 37° C. 30 sec"}}, "note": "Where two headings read alike, the source gives them in different places.", "data": [{"compound": "Cc1nc(-c2ccccc2)c(-c2ccc(S(N)(=O)=O)cc2)o1", "note": "[2-methyl-4-phenyl-5-sulfonamidophenyl oxazolo, reference compound]", "values": [{"measurement": "IC50", "setting": "[1]; Table 1 ester derivatives, 20 min at rt, then 14C-AA (50 μM) 37° C. 30 sec", "value": 0.06, "unit": "µM"}, {"measurement": "IC50", "setting": "[2]", "value": "> 66", "unit": "µM"}, {"measurement": "IC50", "setting": "[2]; [6]", "value": "> 66", "unit": "µM"}]}, {"compound": "COC(=O)Cc1c(C)n(C(=O)c2ccc(Cl)cc2)c2ccc(OC)cc12", "note": "[Compound 2, Indomethacin methyl ester]", "values": [{"measurement": "IC50", "setting": "[2]", "value": "~33", "unit": "µM"}, {"measurement": "IC50", "setting": "[2]; [6]", "value": 33, "unit": "µM"}]}, {"compound": "COc1ccc2c(c1)c(CC(=O)OC(C)C)c(C)n2C(=O)c1ccc(Cl)cc1", "note": "[Compound 5, Indomethacin isopropyl ester]", "values": [{"measurement": "IC50", "setting": "[2]", "value": 37, "unit": "µM"}]}, {"compound": "CCCCCCCOC(=O)Cc1c(C)n(C(=O)c2ccc(Cl)cc2)c2ccc(OC)cc12", "note": "[Compound 11, Indomethacin heptyl ester]", "values": [{"measurement": "IC50", "setting": "[2]", "value": "> 66", "unit": "µM"}]}, {"compound": "CCCCC#CCOC(=O)Cc1c(C)n(C(=O)c2ccc(Cl)cc2)c2ccc(OC)cc12", "note": "[Compound 14, Indomethacin hept-2-ynyl ester]", "values": [{"measurement": "IC50", "setting": "[2]", "value": "> 66", "unit": "µM"}]}, {"compound": "CCC#CCC(C)OC(=O)Cc1c(C)n(C(=O)c2ccc(Cl)cc2)c2ccc(OC)cc12", "note": "(stereo not drawn) [Compound 15, Indomethacin 2-(hept-4-ynyl) ester]", "values": [{"measurement": "IC50", "setting": "[2]", "value": "> 66", "unit": "µM"}]}, {"compound": "CCCCCCCCOC(=O)Cc1c(C)n(C(=O)c2ccc(Cl)cc2)c2ccc(OC)cc12", "note": "[Compound 16, Indomethacin octyl ester]", "values": [{"measurement": "IC50", "setting": "[2]", "value": "> 66", "unit": "µM"}]}, {"compound": "COc1ccc2c(c1)c(CC(=O)Oc1ccc3ccccc3c1)c(C)n2C(=O)c1ccc(Cl)cc1", "note": "[Compound 25, Indomethacin β-naphthyl ester]", "values": [{"measurement": "IC50", "setting": "[2]", "value": "> 66", "unit": "µM"}]}, {"compound": "COc1ccc2c(c1)c(CC(=O)Nc1ccc(NC(C)=O)cc1)c(C)n2C(=O)c1ccc(Cl)cc1", "note": "[Compound 41, Indomethacin-N-(4-acetamidophenyl) amide]", "values": [{"measurement": "3 hour edema", "setting": "[3]; Concentration 0.2 mg/mL", "value": 0.55, "unit": "mL"}, {"measurement": "3 hour edema", "setting": "[3]; Concentration 0.5 mg/mL", "value": 0.47, "unit": "mL"}, {"measurement": "3 hour edema", "setting": "[3]; Concentration 1.0 mg/mL", "value": 0.39, "unit": "mL"}, {"measurement": "3 hour edema", "setting": "[3]; Concentration 2.0 mg/mL", "value": 0.38, "unit": "mL"}, {"measurement": "reduction in inflammation", "setting": "[3]; rat, 2 mg/kg orally 1 hour after carrageenan, corrected for 0.1 mL injection volume", "value": "80-85%"}]}, {"compound": "COc1ccc2c(c1)c(CC(=O)Nc1cc(OC)c(OC)c(OC)c1)c(C)n2C(=O)c1ccc(Cl)cc1", "note": "[Compound 46, Indomethacin-N-(3,4,5-trimethoxyphenyl) amide]", "values": [{"measurement": "Selectivity, ratio of IC50 (COX-1):IC50 (COX-2)", "setting": "[1]; Table 2 amide derivatives", "value": ">66"}, {"measurement": "IC50", "setting": "[1]; [7]", "value": "> 1", "unit": "µM"}, {"measurement": "IC50", "setting": "[2]; [8]", "value": "> 66", "unit": "µM"}]}, {"compound": "COc1ccc2c(c1)c(CC(=O)Nc1ccc(Cl)nc1)c(C)n2C(=O)c1ccc(Cl)cc1", "note": "[Compound 48, Indomethacin-N-5-((2-chloro)pyridyl) amide]", "values": [{"measurement": "Selectivity, ratio of IC50 (COX-1):IC50 (COX-2)", "setting": "[1]; Table 2 amide derivatives", "value": ">1404"}, {"measurement": "IC50", "setting": "[1]; [7]", "value": 0.047, "unit": "µM"}, {"measurement": "IC50", "setting": "[2]; [8]", "value": "> 66", "unit": "µM"}]}, {"compound": "COC(=O)[C@H](C)NC(=O)Cc1c(C)n(C(=O)c2ccc(Cl)cc2)c2ccc(OC)cc12", "note": "[Compound 52, Indomethacin-N-2-(2-L-methoxycarbonylethyl) amide]", "values": [{"measurement": "IC50", "setting": "[1]; [7]", "value": 0.4, "unit": "µM"}]}, {"compound": "COc1ccc2c(c1)c(CC(=O)Nc1nc(C)cs1)c(C)n2C(=O)c1ccc(Cl)cc1", "note": "[Compound 57, Indomethacin-N-2-(4-methylthiazolyl) amide]", "values": [{"measurement": "IC50", "setting": "[2]; [8]", "value": "> 66", "unit": "µM"}]}, {"compound": "COc1ccc2c(c1)c(CC(=O)O)c(C)n2C(=O)c1ccc(Cl)cc1", "note": "[Indomethacin, reference compound]", "values": [{"measurement": "reduction in inflammation, in words", "setting": "[3]; rat, 2 mg/kg orally", "value": "comparable reduction in inflammation"}]}, {"compound": "CC1=C(CC(=O)O)c2cc(F)ccc2/C1=C\\c1ccc(S(C)(=O)=O)cc1", "note": "[sulindac sulfone]", "values": [{"measurement": "COX-2 inhibition, in words", "setting": "[4]", "value": "does not inhibit"}, {"measurement": "COX-1 inhibition, in words", "setting": "[5]", "value": "does not inhibit"}]}]}
